Where “and” joins values, the source holds several entries; their conditions need not be identical. Identical values can stand only once. Like-named read-outs stand apart in the source and are kept apart here.
Key:
[1] = test system: HepG2 cells; conditions: cited from earlier work
[2] = test system: mutant lung cancer cells (PC-9); design: method as in Mao L. F. et al., 2020; conditions: PC-9, stronger effect than icotinib; ref Mao L. F. et al., 2020; cited from earlier work
[3] = test system: wild-type lung cancer cells (A549); design: method as in Mao L. F. et al., 2020; conditions: A549, stronger effect than icotinib; ref Mao L. F. et al., 2020; cited from earlier work
[4] = test system: MCF-7 cells; assay: MTT assay for cell proliferation, MCF-7; format: cell-based; design: key to Inhibitory rate / Inhibition rate: inhibition rate = 1 - mean A490 sample/mean A490 control (fraction)
Protocol: (§1) HepG2, HeLa, MCF-7, and KYSE-30 cells were grown in a humidified incubator at 37°C with 5% CO2 in DMEM supplemented with 10% fetal bovine serum (FBS), […] streptomycin, and 100 U/mL penicillin.
(§2) When HepG2 cells reached 80% confluence, they were treated with 1 mL of trypsin and resuspended at a density of 10^5 cells/mL. Then, 100 μL of cell suspension was seeded into each well of a 96-well plate and incubated in a humidified atmosphere. The different concentrations of KJ-5 and KJ-12 (0, 1, 2, 4, 8, 16, and 32 μM) were added to each well, and the cells were further incubated for 48 h. Afterward, 20 μL of the MTT solution (5 mg/mL) was added to each well, and incubation was continued for another 4 h. The supernatant was discarded, and 200 μL of the DMSO solution was added to each well. The plate was shaken for 10 min in the dark. The absorbance values were measured at 490 nm using an enzyme-linked detector. The cell inhibition rate (%) was calculated using the following formula: (1-Mean A490 sample/Mean A490 control) × 100%.

[5] = test system: HeLa cells; assay: MTT assay for cell proliferation, HeLa; format: cell-based; design: key to Inhibitory rate: inhibition rate = 1 - mean A490 sample/mean A490 control (fraction); conditions: Hela
Protocol: as §1, §2

[6] = test system: HepG2 cells; assay: MTT assay for cell proliferation and cytotoxicity, HepG2; format: cell-based; design: key to Inhibitory rate: inhibition rate = 1 - mean A490 sample/mean A490 control (fraction)
Protocol: as §1, §2

[7] = test system: KYSE-30 cells; assay: MTT assay for cell proliferation, KYSE-30; format: cell-based; design: key to Inhibitory rate: inhibition rate = 1 - mean A490 sample/mean A490 control (fraction); conditions: for Inhibitory rate: KYSE-30, given as fraction
Protocol: as §1, §2

[8] = MCF-7, fraction, per experiment
[9] = HepG2, fraction, per experiment

In the case of `O=C(NCc1cn(-c2ccc(I)cc2)nn1)Nc1ccc(Cl)c(C(F)(F)F)c1` [compound 4], the IC50 ([1]; ref Chen et al., 2022a, Oekchuae et al., 2022, read-out: IC50 for HepG2 cells) is given as 5.57 µM.

For `Clc1cccc(-n2cc(-c3cccc(Nc4ncnc5cc6c(cc45)OCCOCCOCCO6)c3)nn2)c1` [compound 5], the “Inhibitory effect on PC-9 cells” value [2] is given as “excellent inhibitory effects” and the “Inhibitory effect on A549 cells” value [3] is given as “excellent inhibitory effects”.

For `C[C@]12CC[C@@H]3c4ccc(O)cc4CC[C@H]3[C@@H]1CC[C@@]2(O)c1cn(CC(=O)c2ccc(Cl)cc2)nn1` [compound 2], the IC50 ([1]; ref Queiroz et al., 2019, read-out: IC50 for HepG2 cells) is listed as 17.8 µM.

For `COc1ccc(CN(C(=O)Cn2cc(COc3ccc4c(C)cc(=O)oc4c3)nn2)c2cc(OC)c(OC)c(OC)c2)cc1` [compound 1], the IC50 ([1]; ref Fu et al., 2019, read-out: IC50 for the inhibition of HepG2 cells) is listed as 1.71 µM.

For `Cc1c(C(=O)Nc2ccc(Oc3cccc4[nH]ccc34)c(F)c2)nnn1-c1ccc(F)cc1` [compound 3], the IC50 ([1]; ref Wang L. et al., 2018, Chen et al., 2022b, read-out: IC50 for HepG2 cells) is listed as 2.03 µM.

`COc1ccccc1-n1cc(-c2cccc(NC(=O)c3cn4c(c(OC)c3=O)C(=O)N3[C@@H](C)CO[C@@H]3C4)c2)nn1` [KJ-7] gave an Inhibitory rate [4, 8] of 0.4361, an ODtreated/ODcontrol [4, 8] of 0.5639 and an Inhibitory rate ([4]; given as fraction, second of three experiments) of 0.4406. The Inhibition rate ([4]; given as fraction, third of three experiments) was 0.3594, the “Inhibition rate (16μM), 48 h, MCF-7” value ([4]; preliminary screening, MCF-7, 16 μM, 48 h, mean±SD, unit not given) was 41.2±4.56 and the ODtreated/ODcontrol ([4]; second of three experiments) was 0.5594. The ODtreated/ODcontrol ([4]; third of three experiments) was 0.6406, the Inhibitory rate ([5]; fraction, per experiment) was 0.3847 and 0.3789 and 0.3067 and the ODtreated/ODcontrol ([5]; fraction, per experiment) was 0.6153 and 0.6211 and 0.6933. The “Inhibition rate (16μM), 48 h, Hela” value ([5]; preliminary screening, 16 μM, 48 h, mean±SD, unit not given) was 35.68±4.35, the IC50 ([6]; HepG2, 48 h, MTT) was 21.7 ± 1.07 µM and the Inhibitory rate [6, 9] was 0.4068 and 0.4092 and 0.416. The ODtreated/ODcontrol [6, 9] was 0.5932 and 0.5908 and 0.584, the “Inhibition rate (16μM), 48 h, HepG2” value ([6]; preliminary screening, HepG2, 16 μM, 48 h, mean±SD, unit not given) was 41.07±0.48 and the ODtreated/ODcontrol ([7]; KYSE-30, first of three experiments) was 0.5159. For the same compound, the Inhibitory rate ([7]; first of three experiments) was 0.4841, the Inhibitory rate ([7]; second of three experiments) was 0.4213 and the Inhibitory rate ([7]; third of three experiments) was 0.4377. The ODtreated/ODcontrol ([7]; KYSE-30, second of three experiments) was 0.5787, the ODtreated/ODcontrol ([7]; KYSE-30, third of three experiments) was 0.5623 and the “Inhibition rate (16μM), 48 h, KYSE-30” value ([7]; preliminary screening, KYSE-30, 16 μM, 48 h, mean±SD, unit not given) was 44.77±3.26.
